“Also recorded” adds a separate entry of the source.
Assays:
claudin-1 (CLDN1) = target: T1, claudin-1 (CLDN1) (Homo sapiens, UniProt O95832); test: siRNA knockdown of CLDN1 expression, peptide and antibody binding to SW620 cells; type: cell-based
T1 construct: endogenous in cells; host or cells: SW620 human colorectal adenocarcinoma cells
T1 sequence (O95832 1-211): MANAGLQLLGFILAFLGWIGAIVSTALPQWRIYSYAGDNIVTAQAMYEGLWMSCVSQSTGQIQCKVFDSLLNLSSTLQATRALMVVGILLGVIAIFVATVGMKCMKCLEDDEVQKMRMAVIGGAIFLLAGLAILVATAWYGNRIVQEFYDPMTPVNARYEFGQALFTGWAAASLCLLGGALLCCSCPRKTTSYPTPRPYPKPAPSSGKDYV
Protocol: CLDN1 expression was knocked down using Dharmacon On-Target Plus SMARTpool Human CLDN1 siRNA (Thermo Scientific) according to the manufacturer's protocol. SW620 cells were plated overnight on coverslips in a 12-well plate at 0.2×10^6 cells/mL. The following day, cells were transfected with 3 μL DharmaFECT1 and either 25 nM CLDN1 or control siRNA. After 72 h, transfected cells were analyzed for CLDN1 expression through immunocytochemistry, a peptide binding study, or a Western blot of the cell lysate. For the immunocytochemistry experiment, cells were fixed with ice-cold methanol for 20 minutes at −20° C., blocked for 1 h at RT with PBS+2% BSA, stained with anti-human CLDN1 antibody at 5 μg/mL for 1 h at RT, then with goat anti-Rabbit AF488 (1:500) for 1 h at RT before being mounted on slides with DAPI with Prolong Gold. siRNA-transfected cells were also stained with 5 μM RTS-Cy5.5 or SPT-Cy5.5 for 30 minutes at 4° C., fixed with 4% PFA for 10 minutes at RT, then mounted on slides. Simultaneously, transfected cells were lysed with RIPA buffer containing Roche Mini-Complete EDTA-free Protease Inhibitor for 10 minutes on ice, collected and spun at 20,000×g for 10 minutes at 4° C. Supernatant was saved, total protein concentration quantified via a BCA assay, and 10 ug protein of each sample run on a Novex 4-20% 1.5 mm protein gel before transferring to a PVDF membrane. The membrane was blocked with PBST+5% non-fat milk for 1 h at 4° C., stained with either rabbit anti-CLDN1 Ab or mouse anti-tubulin Ab at 4° C. overnight, then with anti-rabbit HRP (1:500, for CLDN1) or anti-mouse HRP (1:500, for tubulin) for 1 h at RT before developing.
The specificity of peptide binding was validated on siRNA knockdown. […] These cells were transfected with siRNA to knockdown cell surface expression of claudin-1. […] The fluorescence intensities (mean±std) are shown (FIG. 2H). […] Given the experimental design and mean-squared-errors shown in FIG. 2H, with triplicate slides we have 98% power to obtain P<0.01 for interactions that show a 3-fold difference of differences.

SW620 cells = test: Apparent association time constant by flow cytometry; type: binding, human; details: 5 μM, 4° C.
Protocol: To measure the apparent association time constant of RTS*-Cy5.5, SW620 cells were washed two times with PBS+0.5% BSA, then 1×10^5 cells were incubated with 5 μM RTS*Cy5.5 at 4° C. for different time intervals ranging from 2-15 min. The cells were immediately washed of unbound peptide several times with PBS+0.5% before analyzing via flow cytometry. The mean fluorescent intensity of SW620 cells at the various time points was ratioed with that of untreated cells and used to calculate the rate constant, k, by fitting the data to a first order kinetics model, y(t)=Imax[1−exp^(−kt)], using Origin 6.1 software.
To measure the apparent association time constant of RTS*-Cy5.5, SW620 cells were washed 2× with PBS+0.5% BSA, then ˜10^5 cells were incubated with 5 μM RTS*-Cy5.5 at 4° C. for time intervals ranging from 2-15 min. The cells were immediately washed of unbound peptide 5× with PBS+0.5% BSA before analyzing with flow cytometry. The mean fluorescence intensity of SW620 cells at the various time points was ratioed with that of untreated cells and used to calculate the rate constant k by fitting the data to a first order kinetics model, y(t)=Imax[1−exp^(−kt)], using Origin 6.1 software. An apparent association time constant k=0.83 min^−1 which corresponds to <1.2 min was measured.

colonic dysplasia = test: In vivo fluorescence endoscopy of colon in CPC;Apc mouse; details: CPC;Apc mouse colon
Text: A genetically engineered mouse model (Cpc;Apc) that spontaneously forms adenomatous polyps in the colon was used for this study and handled according to Institutional Guidelines. The colons of anesthetized mice were first cleaned with water before imaging with a small animal endoscope (Karl Storz Veterinary Endoscope) using the white light channel to locate polyps by identifying anatomic landmarks and the distance of the endoscope tip from the anus. […] Fluorescent and reflectance images were then collected with the same endoscope set to the appropriate channels. Once in vivo imaging was complete, four of the mice used in the study were euthanized and colons harvested. Polyps and flat lesions detected during fluorescence imaging were located, removed, and processed for histology (H&E).
These mice are genetically-engineered to spontaneously develop colonic dysplasia, and the colonic lesions that develop are molecularly and histologically similar to that seen in human disease, making these mice a good model for monitoring cancer development. Because the extra-cellular domain of claudin-1 is completely homologous between human and mouse, peptides developed for human targets can be directly used in mouse imaging experiments. […] CPC;Apc mice were imaged at ˜3 months of age when they first begin to develop dysplasia. […] After imaging is completed, mice were euthanized, and the colons were resected. Based on the location of dysplastic lesions determined using fluorescence images collected with endoscopy, a pathologist measured the depth of dysplasia on histology, as shown by the dashed arrow in FIG. 7E. […] Images are obtained from mice over at least three sessions separated by 1 week to monitor for cancer progression.

Substance: RTS*-Cy5.5: RTSPSSR labeled at the C-terminus with Cy5.5 via a GGGSK linker
- signal for siCL versus siCLDN1 cells (claudin-1 (CLDN1); SW620 cells, control siRNA versus CLDN1 siRNA, 3 replicate slides): 10.5 fold-change
- binding to the surface of SW620 cells (claudin-1 (CLDN1); confocal microscopy): strong binding
- time corresponding to association time constant (SW620 cells): < 1.2 min
- apparent association time constant k (SW620 cells; 2-15 min): 0.83 min⁻¹
- fluorescence signal from dysplasia on endoscopy (colonic dysplasia): Increased signal; also recorded: increased fluorescence
